# Laboratory results as given in ChEMBL document CHEMBL1140273, “Carbonic anhydrase inhibitors: novel sulfonamides incorporating 1,3,5-triazine moieties as inhibitors of the cytosolic and tumour-associated carbonic anhydrase isozymes I, II and IX” (Bioorg Med Chem Lett, 2005).
# Biological target: Carbonic anhydrase 9 (Homo sapiens, UniProt Q16790)
row,Ki [µM],SMILES
1,0.001,NS(=O)(=O)c1ccc(CCNc2nc(Cl)nc(NCC(=O)O)n2)cc1
2,0.056,CCCNc1nc(NCCC)nc(Nc2ccc(S(N)(=O)=O)cc2)n1

# Second part, the compound before the results:
row,SMILES,Ki [µM]
1,CC(C)Nc1nc(NCc2ccc(S(N)(=O)=O)cc2)nc(NC(C)C)n1,0.016
2,CCN(CC)c1nc(NCc2ccc(S(N)(=O)=O)cc2)nc(N(CC)CC)n1,0.0075
3,NS(=O)(=O)c1ccc(Nc2nc(Oc3ccccc3)nc(Oc3ccccc3)n2)cc1,0.254
